Legend:
Type in all cases: physicochemical, human
[1] = LC/MS of serum sample: number of times of freezing and thawing (Table M); parameters: key to Rate of increase or decrease: detection intensity relative to 1 at 2 freeze-thaw cycles; conditions: for Number of times when compound is affected / Increase or decrease: serum sample, LC/MS; for Number of times when compound is affected: detection intensity changed by 30% or more vs 2 times of freezing and thawing; for Increase or decrease: detection intensity vs 2 times of freezing and thawing
How it was run: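 Serum was isolated at room temperature after centrifugation at room temperature, 3500 rpm, 5 minutes, then frozen and freeze-thawed 2, 4, 6 or 10 times. LC/MS used a Discovery HS F5-3 column at 40° C with formic acid water/acetonitrile, electrospray MRM. Intensity is relative to 2 freeze-thaw cycles.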

[2] = LC/MS of serum sample: time from blood collection to centrifugation (Table J); conditions: for Increase or decrease / Time when compound is affected: serum sample, LC/MS; for Increase or decrease: detection intensity vs 15 minutes from blood collection to centrifugation; for Time when compound is affected: time from blood collection to centrifugation, detection intensity changed by 30% or more vs 15 minutes
How it was run: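 Serum from blood centrifuged at room temperature, 3500 rpm, 5 min, then frozen; analysed by LC/MS on a Discovery HS F5-3 column at 40 °C. Mobile phase: 0.1% formic acid in water/acetonitrile, 0.25 mL/min, electrospray MRM. Values are intensity relative to a 15 min collection-to-centrifugation time.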

[3] = GC/MS of blood plasma sample: time from blood collection to cooling of blood (Table B); parameters: key to Rate of increase or decrease / Rate of increase or decrease (first value, increase): detection intensity relative to 1 at cooling time ≤1 min; conditions: for Rate of increase or decrease: detection intensity relative to 1 at 1 minute or less, blood collection to cooling 5 minutes; for Increase or decrease: detection intensity, blood collection to cooling 5 minutes or more vs 1 minute or less
How it was run: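 Blood drawn at room temperature into EDTA tubes, mixed, then cooled at 4° C. within 1 minute or less versus 5 minutes or more before centrifugation (4° C., 3000 rpm, 15 minutes). Plasma was frozen, methoxymated and trimethylsilylated, and analysed by EI GC/MS in MRM mode. Values are detection intensity relative to the ≤1 minute condition.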

[4] = GC/MS of serum sample: time from blood collection to centrifugation (Table G); conditions: for Increase or decrease: detection intensity, after 4 hours vs 15 minutes; for Increase or decrease / Rate of increase or decrease: blood collection to centrifugation; for Rate of increase or decrease: detection intensity relative to 1 at 15 minutes
How it was run: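 Blood was held for varying times before centrifugation (room temperature, 3500 rpm, 5 min); serum was frozen, then methoxymated and trimethylsilylated for GC/MS with electron ionization in MRM mode. Values are detection intensities relative to the 15-minute collection-to-centrifugation condition, set as 1.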

[5] = 4 times of freezing and thawing, relative to 1 at 2 times, different from individual to individual, first value (increase)
[6] = 4 times of freezing and thawing, relative to 1 at 2 times, different from individual to individual, second value (decrease)
[7] = after 4 hours from blood collection to centrifugation, detection intensity relative to 1 at 15 minutes

For `O=c1[nH]c(=O)c2[nH]cnc2[nH]1` [Xanthine], the “Rate of increase or decrease” value [1, 5] was 1.37, the “Rate of increase or decrease” value [1, 6] was 0.70 and the “Number of times when compound is affected” value (shortened to “Number of times”) [1] was 4 times. For the same compound, the Increase or decrease [1] was “Different from individual”, the “Rate of increase or decrease” value [2, 7] was 1.92 and the Increase or decrease [2] was “Increase”. For the same compound, the “Time when compound is affected” value [2] was “After 4 hours”, the “Rate of increase or decrease” value [3] was 0.45 and the Increase or decrease [3] was “Decrease”.
With `CC(C)(CO)[C@@H](O)C(=O)NCCC(=O)O` [Pantothenic acid] the Increase or decrease [4] was “Different from individual”, the “Rate of increase or decrease (second value, decrease)” value ([4]; different from individual to individual, individuals with decrease, relative to 1 at 15 minutes, collection to centrifugation, after 4 hours) was 0.51 and the “Rate of increase or decrease (first value, increase)” value ([4]; different from individual to individual, individuals with increase, relative to 1 at 15 minutes, collection to centrifugation, after 4 hours) was 1.78. The “Rate of increase or decrease” value ([1]; 10 times of freezing and thawing, detection intensity relative to 1 at 2 times) was 0.55, the “Number of times” value [1] was 10 times and the Increase or decrease [1] was “Decrease”. The “Rate of increase or decrease” value ([2]; after 12 hours from blood collection to centrifugation, detection intensity relative to 1 at 15 minutes) was 1.43, the Increase or decrease [2] was “Increase” and the “Time when compound is affected” value [2] was “After 12 hours”. The “Rate of increase or decrease” value [3] was 3.56 and the Increase or decrease [3] was “Increase”.
In the case of `NC(=O)NC1NC(=O)NC1=O` (centres unmarked) [Allantoin], the “Rate of increase or decrease” value ([4]; after 4 hours) is reported as 1.67, the Increase or decrease [4] is reported as “Increase” and the “Rate of increase or decrease” value ([1]; 4 times of freezing and thawing, detection intensity relative to 1 at 2 times) is reported as 3.27. For the same compound, the “Number of times” value [1] was 4 times, the Increase or decrease [1] was “Increase” and the “Rate of increase or decrease” value ([2]; after 4 hours, relative to 1 at 15 minutes, different from individual to individual, first value (increase)) was 1.78. The “Rate of increase or decrease” value ([2]; after 4 hours, relative to 1 at 15 minutes, different from individual to individual, second value (decrease)) was 0.40, the Increase or decrease [2] was “Different from individual” and the “Time when compound is affected” value [2] was “After 4 hours”. The Increase or decrease [3] was “Different from individual”, the “Rate of increase or decrease (second value, decrease)” value ([3]; different from individual to individual, individuals with decrease, relative to 1 at 1 minute or less, collection to cooling 5 minutes) was 0.57 and the “Rate of increase or decrease (first value, increase)” value ([3]; different from individual to individual, individuals with increase, relative to 1 at 1 minute or less, collection to cooling 5 minutes) was 1.30.
With `O=c1[nH]cnc2nc[nH]c12` [Hypoxanthine] the “Rate of increase or decrease” value ([4]; after 4 hours) was 2.11, the Increase or decrease [4] was “Increase” and the “Rate of increase or decrease” value [1, 5] was 1.35. The “Rate of increase or decrease” value [1, 6] was 0.61, the “Number of times” value [1] was 4 times and the Increase or decrease [1] was “Different from individual”. For the same compound, the “Rate of increase or decrease” value [2, 7] was 2.24, the Increase or decrease [2] was “Increase” and the “Time when compound is affected” value [2] was “After 4 hours”.

Reference: patent US20220146526A1, “METHOD FOR EVALUATING SAMPLE, ANALYSIS METHOD, METHOD FOR DETECTING DEGRADED SAMPLE, MARKER FOR DETECTING DEGRADED BLOOD PLASMA SAMPLE, AND MARKER FOR DETECTING DEGRADED SERUM SAMPLE” (SHIMADZU CORPORATION, priority 2019, published 2022)
